Source: PubChem BioAssay AID248 (DTP/NCI, 2004)
Inconclusive results and toxic doses are left out.

Tested on: L1210 leukemia ip in BDF1 mice, survival T/C
Experiment: NCI In Vivo Anticancer Drug Screen. Data for tumor model L1210 Leukemia (intraperitoneal) in B6D2F1 (BDF1) mice
Settings: endpoint: mean survival time, higher = longer survival
Outline: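 In this screen, tumor-bearing mice given compound are compared to those given vehicle, and their survival values are reported as a treated-to-control quotient.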

[1] = dose: 100.0 mg/kg/injection, schedule: Q04DX002 (ip), vehicle: Klucel (hydroxypropylcellulose) (HPC)
[2] = dose: 200.0 mg/kg/injection, schedule: Q04DX002 (ip), vehicle: Klucel (hydroxypropylcellulose) (HPC)
[3] = dose: 400.0 mg/kg/injection, schedule: Q04DX002 (ip), vehicle: Klucel (hydroxypropylcellulose) (HPC)
[4] = dose: 400.0 mg/kg/injection, schedule: Q04DX003 (ip), vehicle: Klucel (hydroxypropylcellulose) (HPC)
[5] = dose: 100.0 mg/kg/injection, schedule: Q01DX009 (ip), vehicle: Klucel (hydroxypropylcellulose) (HPC)
[6] = dose: 200.0 mg/kg/injection, schedule: Q01DX009 (ip), vehicle: Klucel (hydroxypropylcellulose) (HPC)
[7] = dose: 400.0 mg/kg/injection, schedule: Q01DX009 (ip), vehicle: Klucel (hydroxypropylcellulose) (HPC)
[8] = dose: 100.0 mg/kg/injection, schedule: Q01DX001 (ip), vehicle: saline
[9] = dose: 100.0 mg/kg/injection, schedule: Q04DX003 (ip), vehicle: saline
[10] = dose: 200.0 mg/kg/injection, schedule: Q04DX003 (ip), vehicle: saline
[11] = dose: 400.0 mg/kg/injection, schedule: Q04DX003 (ip), vehicle: saline
[12] = dose: 100.0 mg/kg/injection, schedule: Q01DX001 (ip), vehicle: Klucel (hydroxypropylcellulose) (HPC)
[13] = dose: 200.0 mg/kg/injection, schedule: Q01DX001 (ip), vehicle: Klucel (hydroxypropylcellulose) (HPC)
[14] = dose: 400.0 mg/kg/injection, schedule: Q01DX001 (ip), vehicle: Klucel (hydroxypropylcellulose) (HPC)

O=C1C=CC(=O)c2c(O)c(CO)c(CO)c(O)c21
T/C (dose: 0.78 mg/kg/injection, schedule: Q01DX009 (ip), vehicle: water): 89 % of control | T/C (dose: 1.56 mg/kg/injection, schedule: Q01DX009 (ip), vehicle: water): 86 % of control

C[C@]12CCCC[C@@H]1CC[C@@H]1[C@@H]2[C@@H](O)C[C@]2(C)[C@@H](O)CC[C@@H]12
T/C (dose: 50.0 mg/kg/injection, schedule: Q01DX009 (ip), vehicle: saline with Tween-80): 98 % of control | T/C (dose: 100.0 mg/kg/injection, schedule: Q01DX009 (ip), vehicle: saline with Tween-80): 90 % of control | T/C (dose: 200.0 mg/kg/injection, schedule: Q01DX009 (ip), vehicle: saline with Tween-80): 95 % of control

Cc1ccc(NC(=S)Nc2ccccc2)cc1Cl
T/C [1]: 106 % of control | T/C [2]: 100 % of control | T/C [3]: 100 % of control

Nc1cc2c3c(cccc3c1Br)C(=O)N(Cc1ccccc1)C2=O
T/C [4]: 88 % of control

Cc1cc(OC(=O)Nc2cccc(Cl)c2Cl)c(C(C)C)cc1Cl
T/C [5]: 97 % of control | T/C [6]: 94 % of control | T/C [7]: 100 % of control

COC/C(C)=C/Cl
T/C (dose: 100.0 mg/kg/injection, schedule: Q01DX001 (ip), vehicle: acetone): 102 % of control | T/C (dose: 200.0 mg/kg/injection, schedule: Q01DX001 (ip), vehicle: acetone): 100 % of control | T/C (dose: 400.0 mg/kg/injection, schedule: Q01DX001 (ip), vehicle: acetone): 96 % of control

O=C(OC1CCCCCCC1)C(F)(F)F
T/C [5]: 98 % of control | T/C (dose: 100.0 mg/kg/injection, schedule: Q04DX003 (ip), vehicle: Klucel (hydroxypropylcellulose) (HPC)): 104 % of control | T/C [6]: 101 % of control | T/C (dose: 200.0 mg/kg/injection, schedule: Q04DX003 (ip), vehicle: Klucel (hydroxypropylcellulose) (HPC)): 105 % of control | T/C [7]: 92 % of control | T/C [4]: 105 % of control

COC(=O)C(Br)(C(=O)OC)C(c1ccccc1)c1ccccc1
T/C (dose: 100.0 mg/kg/injection, schedule: Q04DX002 (ip), vehicle: other): 90 % of control | T/C (dose: 200.0 mg/kg/injection, schedule: Q04DX002 (ip), vehicle: other): 86 % of control | T/C (dose: 400.0 mg/kg/injection, schedule: Q04DX002 (ip), vehicle: other): 93 % of control

O=CN(O)CC(=O)O.[Ni]
T/C (dose: 6.25 mg/kg/injection, schedule: Q01DX009 (ip), vehicle: saline): 105 % of control | T/C (dose: 12.5 mg/kg/injection, schedule: Q01DX009 (ip), vehicle: saline): 109 % of control

COc1cc(Cl)ccc1NC(=O)N(C)C1CCCCC1
T/C [5]: 104 % of control | T/C [6]: 104 % of control | T/C [7]: 95 % of control

O=C(OCCO)c1cc(OCCO)nc(Cl)n1
T/C (dose: 50.0 mg/kg/injection, schedule: Q01DX009 (ip), vehicle: Klucel (hydroxypropylcellulose) (HPC)): 100 % of control | T/C [5]: 100 % of control | T/C [6]: 89 % of control

NCC(=O)c1ccc(-c2ccccc2)cc1
T/C [8]: 97 % of control | T/C [9]: 90 % of control | T/C (dose: 200.0 mg/kg/injection, schedule: Q01DX001 (ip), vehicle: saline): 92 % of control | T/C [10]: 98 % of control | T/C (dose: 400.0 mg/kg/injection, schedule: Q01DX001 (ip), vehicle: saline): 97 % of control

CC1(C)CCCC(Cl)(C(Cl)c2ccccc2)C1=O (stereo unspecified)
T/C (dose: 100.0 mg/kg/injection, schedule: Q01DX009 (ip), vehicle: saline): 90 % of control | T/C [9]: 104 % of control | T/C (dose: 200.0 mg/kg/injection, schedule: Q01DX009 (ip), vehicle: saline): 95 % of control | T/C [10]: 102 % of control | T/C (dose: 400.0 mg/kg/injection, schedule: Q01DX009 (ip), vehicle: saline): 91 % of control | T/C [11]: 104 % of control

N/C(=N\O)c1cccc(/C(N)=N/O)c1
T/C [8]: 103 % of control

O=C1C=CC(=O)N1c1cc(Cl)c(Cl)cc1Cl
T/C (dose: 10.0 mg/kg/injection, schedule: Q01DX001 (ip), vehicle: saline): 97 % of control | T/C (dose: 20.0 mg/kg/injection, schedule: Q01DX001 (ip), vehicle: saline): 87 % of control | T/C (dose: 40.0 mg/kg/injection, schedule: Q01DX001 (ip), vehicle: saline): 95 % of control

COC1=C[C@]23CCCN2C[C@H](O)c2cc4c(cc2[C@@H]3[C@@H]1O)OCO4
T/C (dose: 15.0 mg/kg/injection, schedule: Q01DX009 (ip), vehicle: saline): 108 % of control | T/C (dose: 30.0 mg/kg/injection, schedule: Q01DX009 (ip), vehicle: saline): 104 % of control | T/C (dose: 60.0 mg/kg/injection, schedule: Q01DX009 (ip), vehicle: saline): 100 % of control

O=C1C=C(c2ccccc2)C(=O)c2ccccc21
T/C [12]: 106 % of control | T/C [13]: 101 % of control | T/C [14]: 105 % of control

CC(=O)Nc1ccc(F)c(Cl)c1F
T/C [1]: 121 % of control | T/C [2]: 105 % of control | T/C [3]: 102 % of control

O=c1[nH]c(-c2ccccc2N=NN2CCCCC2)nc2ccccc12
T/C (dose: 25.0 mg/kg/injection, schedule: Q04DX002 (ip), vehicle: saline with Tween-80): 100 % of control | T/C (dose: 50.0 mg/kg/injection, schedule: Q04DX002 (ip), vehicle: saline with Tween-80): 103 % of control | T/C (dose: 200.0 mg/kg/injection, schedule: Q04DX002 (ip), vehicle: saline with Tween-80): 103 % of control | T/C (dose: 400.0 mg/kg/injection, schedule: Q04DX002 (ip), vehicle: saline with Tween-80): 88 % of control

CCCCCCCC(N)C(=O)O (stereo unspecified)
T/C (dose: 100.0 mg/kg/injection, schedule: Q04DX002 (ip), vehicle: gum acacia): 95 % of control | T/C (dose: 200.0 mg/kg/injection, schedule: Q04DX002 (ip), vehicle: gum acacia): 104 % of control | T/C (dose: 400.0 mg/kg/injection, schedule: Q04DX002 (ip), vehicle: gum acacia): 88 % of control

CCC[N+](=CC1CCCCC1)CCC
T/C [9]: 104 % of control | T/C [10]: 95 % of control | T/C [11]: 91 % of control

Nc1cc(NCc2ccccc2)nc(=O)[nH]1
T/C (dose: 100.0 mg/kg/injection, schedule: Q01DX001 (ip), vehicle: gum acacia): 97 % of control | T/C (dose: 200.0 mg/kg/injection, schedule: Q01DX001 (ip), vehicle: gum acacia): 95 % of control | T/C (dose: 400.0 mg/kg/injection, schedule: Q01DX001 (ip), vehicle: gum acacia): 101 % of control

O=C1Nc2ccc(Cl)cc2C1=O
T/C (dose: 75.0 mg/kg/injection, schedule: Q01DX001 (ip), vehicle: saline): 90 % of control | T/C (dose: 150.0 mg/kg/injection, schedule: Q01DX001 (ip), vehicle: saline): 93 % of control | T/C (dose: 300.0 mg/kg/injection, schedule: Q01DX001 (ip), vehicle: saline): 93 % of control

Cc1ccc(S(=O)(=O)N(Cc2ccccc2[N+](=O)[O-])c2ccccc2)cc1
T/C (dose: 100.0 mg/kg/injection, schedule: Q01DX001 (ip), vehicle: carboxymethylcellulose (CMC)): 103 % of control | T/C (dose: 200.0 mg/kg/injection, schedule: Q01DX001 (ip), vehicle: carboxymethylcellulose (CMC)): 100 % of control | T/C (dose: 400.0 mg/kg/injection, schedule: Q01DX001 (ip), vehicle: carboxymethylcellulose (CMC)): 103 % of control

CC[C@@](O)(C(=O)NC)c1cc2n(c(=O)c1CO)Cc1cc3ccccc3nc1-2
T/C (dose: 2.3 mg/kg/injection, schedule: Q01DX015 (ip), vehicle: saline): 155 % of control | T/C (dose: 3.5 mg/kg/injection, schedule: Q01DX015 (ip), vehicle: saline): 172 % of control | T/C (dose: 4.0 mg/kg/injection, schedule: Q01DX001 (ip), vehicle: saline): 110 % of control | T/C (dose: 5.3 mg/kg/injection, schedule: Q01DX015 (ip), vehicle: saline): 102 % of control

O=C1OC(c2ccccc2)CC1NCc1ccccc1 (stereo unspecified)
T/C [12]: 98 % of control | T/C [13]: 101 % of control | T/C [14]: 96 % of control

CCOC(=O)/C(C)=C\c1c(Br)cc(Br)c(N)c1Br
T/C (dose: 75.0 mg/kg/injection, schedule: Q01DX009 (ip), vehicle: Klucel (hydroxypropylcellulose) (HPC)): 97 % of control | T/C (dose: 150.0 mg/kg/injection, schedule: Q01DX009 (ip), vehicle: Klucel (hydroxypropylcellulose) (HPC)): 97 % of control | T/C (dose: 300.0 mg/kg/injection, schedule: Q01DX009 (ip), vehicle: Klucel (hydroxypropylcellulose) (HPC)): 95 % of control

CC1(C)CCCC(C)(C)N1
T/C (dose: 50.0 mg/kg/injection, schedule: Q01DX001 (ip), vehicle: saline): 94 % of control
